Measurements from ChEMBL document CHEMBL1129417, “Glucose transport-enhancing and hypoglycemic activity of 2-methyl-2-phenoxy-3-phenylpropanoic acids” (1996).

Key:
Type in all cases: functional
[1] = test system: Mus musculus; assay: compound was tested in vivo for hypoglycemic activity in 6-8 week old C57BL/6J ob/ob mouse at 10 mg/kg
[2] = species: Rattus norvegicus; assay: Compound was tested for inhibition of gluconeogenesis
[3] = species: Rattus norvegicus; assay: Inhibition of gluconeogenesis in rat
[4] = test system: Mus musculus; assay: compound was tested in vivo for hypoglycemic activity expressed as Glucose lowering relative to positive control in 6-8 week old C57BL/6J ob/ob mouse at 50 mg/kg
[5] = test system: 3T3-L1; assay: In vitro measurements 2-Deoxyglucose (2DG) uptake in vehicle treated 3T3-L1 adipocytes at 100 uM dose.
[6] = test system: 3T3-L1; assay: In vitro by measurements of 2-Deoxyglucose (2DG) uptake in vehicle treated 3T3-L1 adipocytes at 3 uM dose.
[7] = test system: 3T3-L1; assay: Acute effects in vitro by measuring 2-deoxyglucose (2DG) uptake in vehicle treated 3T3-L1 adipocytes at 30 uM dose.
[8] = test system: 3T3-L1; assay: compound was evaluated for their acute effects in vitro by measuring 2-Deoxyglucose (2DG) uptake in vehicle treated 3T3-L1 adipocytes at 1 uM dose.
[9] = test system: Mus musculus; assay: In vivo hypoglycemic activity expressed as glucose lowering relative to positive control in 6-8 week old C57BL/6J ob/ob mouse at 10 mg/kg
[10] = test system: 3T3-L1; assay: Acute effects in vitro by measuring 2-deoxyglucose (2DG) uptake in vehicle treated 3T3-L1 adipocytes at 10 uM dose.
[11] = test system: 3T3-L1; assay: In vitro measurements of 2-Deoxyglucose (2DG) uptake in vehicle treated 3T3-L1 adipocytes at 60 uM dose.
[12] = test system: Mus musculus; assay: In vivo hypoglycemic activity expressed as glucose lowering relative to positive control in 6-8 week old C57BL/6J ob/ob mouse at 5 mg/kg.
[13] = test system: L6; assay: compound was evaluated for their acute effects in vitro by measuring 2-Deoxyglucose (2DG) uptake in vehicle treated L6 […] at 60 uM dose.
[14] = test system: Mus musculus; assay: In vivo hypoglycemic activity expressed as glucose lowering relative to positive control in 6-8 week old C57BL/6J ob/ob mouse at 1 mg/kg.
[15] = test system: Mus musculus; assay: compound was tested in vivo for hypoglycemic activity expressed as Glucose lowering relative to positive control in 6-8 week old C57BL/6J ob/ob mouse at 0.5 mg/kg
[16] = Rattus norvegicus, read-out: ED50

SMILES | ED50 [3, 16] | Basal uptake [7] | Hypoglycemic activity [9] | Basal uptake [10] | Hypoglycemic activity [12] | other results
CCc1cccc(CC(C)(Oc2ccc(C(C)C)cc2)C(=O)[N-]S(=O)(=O)C(F)(F)F)c1.[Na+] (centres undefined) |  |  |  |  |  | Hypoglycemic activity [1]: 43%; ED50 [2, 16]: > 10 mg/kg
COc1ccc(CC(Oc2ccc(C(C)C)cc2)C(=O)O)cc1 (centres undefined) | > 50 mg/kg |  |  |  |  | Hypoglycemic activity [4]: <0%; Basal uptake [5]: 127%
CC(C)c1ccc(OC(Cc2ccc3ccccc3c2)C(=O)O)cc1 (centres undefined) | 50 mg/kg |  |  |  |  | Hypoglycemic activity [4]: 45%; Basal uptake [5]: 143%
CC(C)c1ccc(OC(C)(Cc2ccccc2-c2ccccc2)C(=O)[O-])cc1.[Na+] (centres undefined) | 10 mg/kg | 167% | 54% | 228% |  | Basal uptake [6]: 148%; Basal uptake [8]: 97%
CC(C)c1ccc(OC(C(=O)O)c2ccc(Cl)cc2)cc1 (centres undefined) | > 50 mg/kg |  |  |  |  | Hypoglycemic activity [4]: <0%; Basal uptake [5]: 248%
CC(C)c1ccc(CC(C)(Cc2ccc(Cl)cc2)C(=O)O)cc1 (centres undefined) |  |  |  |  |  | Hypoglycemic activity [1]: 20%; ED50 [2, 16]: > 10 mg/kg
CC(Cc1ccc(Cl)cc1)(Oc1ccc(C2CCSc3ccccc32)cc1)C(=O)[O-].[Na+] (centres undefined) | 10 mg/kg | 157% | 38% | 118% |  | Basal uptake [6]: 130%; Basal uptake [8]: 98%
CC(C)c1ccc(OC(C)(Cc2ccc(Cl)cc2)C(=O)NS(=O)(=O)C(F)(F)F)cc1 (centres undefined) | 5 mg/kg | 273% |  | 232% |  | Basal uptake [6]: 130%; Basal uptake [11]: 79%; Basal uptake [8]: 108%
Cc1ccc(S(=O)(=O)C(Cc2ccc(Cl)cc2)C(=O)O)cc1 (centres undefined) | > 50 mg/kg |  |  |  |  | Basal uptake [11]: 89%; Hypoglycemic activity [4]: <0%
CC(C)c1ccc(OC(C)(Cc2ccc(C(F)(F)F)cc2)C(=O)O)cc1 (centres undefined) | < 5 mg/kg |  |  |  | 65% | Basal uptake [13]: 103%
CCCc1cccc(CC(C)(Oc2ccc(C(C)C)cc2)C(=O)[O-])c1.[Na+] (centres undefined) | 1 mg/kg | 229% | 123% | 128% | 82% | Basal uptake [6]: 136%; Basal uptake [8]: 123%; Hypoglycemic activity [14]: 47%
CCc1ccc(CC(C)(Oc2ccc(C(=O)c3ccccc3)cc2)C(=O)O)cc1 (centres undefined) | 0.5 mg/kg |  | 107% |  | 108% | Hypoglycemic activity [15]: 60%; Hypoglycemic activity [14]: 65%
CC(C)c1ccc2c(c1)CC(Cc1ccc(Cl)cc1)(C(=O)O)O2 (centres undefined) | > 50 mg/kg |  |  |  |  | Basal uptake [11]: 66%; Hypoglycemic activity [4]: <0%
CC(Cc1ccc2c(c1)CCC2)(Oc1ccc(Cc2ccccc2)cc1)C(=O)[O-].[Na+] (centres undefined) | 0.5 mg/kg |  | 120% |  | 102% | Hypoglycemic activity [15]: 50%; Hypoglycemic activity [14]: 78%
CC(C)c1ccc(OC(C)(C(=O)NS(=O)(=O)C(F)(F)F)C(C)c2ccc(Cl)cc2)cc1 (centres undefined) | > 10 mg/kg | 113% | 7% | 248% |  | Basal uptake [8]: 94%
Cc1ccc(CC(C)(Oc2ccc(C(C)C)cc2)C(=O)[O-])cc1.[Na+] (centres undefined) | < 1 mg/kg |  | 106% |  | 100% | Hypoglycemic activity [14]: 58%; Basal uptake [5]: 92%

SMILES | ED50 [3, 16] | Basal uptake [7] | Hypoglycemic activity [9] | Basal uptake [10] | Hypoglycemic activity [12] | other results
Cc1cccc(CC(C)(Oc2ccc(C(C)C)cc2)C(=O)[O-])c1.[Na+] (centres undefined) | < 1 mg/kg | 84% | 83% | 98% | 83% | Basal uptake [6]: 93%; Hypoglycemic activity [14]: 63%
CC(C)c1ccc(OC(C)(Cc2ccc(-c3ccccc3)cc2)C(=O)[O-])cc1.[Na+] (centres undefined) | 1 mg/kg | 126% | 116% | 129% | 93% | Basal uptake [6]: 122%; Hypoglycemic activity [15]: 21%; Hypoglycemic activity [14]: 58%
CC(C)c1ccc(OC(Cc2ccc(Cl)cc2Cl)C(=O)O)cc1 (centres undefined) | 10 mg/kg |  | 30% |  | 45% | Hypoglycemic activity [4]: 70%; Basal uptake [5]: 222%
CC(C)c1ccc(OC(Cc2ccc(Br)cc2)C(=O)O)cc1 (centres undefined) | 10 mg/kg |  | <0% |  |  | Hypoglycemic activity [4]: 122%; Basal uptake [5]: 203%
CC(C)c1ccc(OC(C)(Cc2ccc3c(c2)CCC3)C(=O)[O-])cc1.[Na+] (centres undefined) | 0.5 mg/kg |  | 126% |  | 121% | Hypoglycemic activity [15]: 34%; Hypoglycemic activity [14]: 83%
CCCCc1ccc(CC(C)(Oc2ccc(C(C)C)cc2)C(=O)[O-])cc1.[Na+] (centres undefined) | 1 mg/kg | 200% | 130% | 94% | 92% | Basal uptake [6]: 82%; Hypoglycemic activity [14]: 17%
CCC(Cc1ccc(Cl)cc1)(Oc1ccc(C(C)C)cc1)C(=O)[O-].[Na+] (centres undefined) | > 5 mg/kg |  |  |  | 36% | Basal uptake [5]: 156%
CC(C)c1ccc2c(c1)C(c1ccc(Cl)cc1)C(C(=O)O)O2 (centres undefined) | > 50 mg/kg |  |  |  |  | Basal uptake [11]: 89%; Hypoglycemic activity [4]: 25%
CC(C)c1ccc2c(c1)CCC(Cc1ccc(Cl)cc1)(C(=O)O)O2 (centres undefined) | 5 mg/kg | 80% |  | 82% | <0% | Basal uptake [11]: 114%; Hypoglycemic activity [4]: 119%
Cc1ccccc1S(=O)(=O)[N-]CC(C)(Cc1ccc(Cl)cc1)Oc1ccc(C(C)C)cc1.[Na+] (centres undefined) |  |  |  |  |  | Hypoglycemic activity [1]: 7%; ED50 [2, 16]: 10 mg/kg
CCC(c1ccc(Cl)cc1)C(C)(Oc1ccc(C(C)C)cc1)C(=O)O (stereo in doubt; 86) | < 10 mg/kg | 95% |  | 91% |  | Basal uptake [8]: 97%; Hypoglycemic activity ([9]; 10 mg/kg): 71%
CCC(c1ccc(Cl)cc1)C(C)(Oc1ccc(C(C)C)cc1)C(=O)O (stereo in doubt; 87) |  | 109% |  | 96% |  | Basal uptake [8]: 98%; ED50 [3]: >10 mg/kg; Hypoglycemic activity ([9]; 10 mg/kg): 32%
CC(C)c1ccc(C(F)C(C)(Cc2ccc(Cl)cc2)C(=O)O)cc1 (stereo in doubt; 94) |  |  |  |  |  | Hypoglycemic activity ([1]; 10 mg/kg): 63%; ED50 [2]: 10 mg/kg
CC(C)c1ccc(C(F)C(C)(Cc2ccc(Cl)cc2)C(=O)O)cc1 (stereo in doubt; 95) |  |  |  |  |  | Hypoglycemic activity ([1]; 10 mg/kg): 50%; ED50 [2, 16]: 10 mg/kg
CC(C)c1ccc(OC(C)(C(=O)O)C2CCc3cc(Cl)ccc32)cc1 (stereo in doubt; 100) |  | 89% |  | 83% | 78% | Basal uptake [6]: 85%; ED50 [3]: 1 mg/kg; Hypoglycemic activity ([9]; 10 mg/kg): 105%; Hypoglycemic activity [14]: 14%
